Format in all cases: cell-based
The species entered for one assay is Mus musculus. Put plainly: Selectivity ratio of EC50 for agonist activity at Gal4-fused mouse PPAR-gamma ligand binding domain expressed in CHO-K1 cells to EC50 for agonist activity at Gal4-fused mouse PPAR-delta ligand binding domain expressed in CHO-K1 cells.
For assay [1], the target named is T1, Peroxisome proliferator-activated receptor delta (Mus musculus) (UniProt P35396).
T1 sequence (whole entry): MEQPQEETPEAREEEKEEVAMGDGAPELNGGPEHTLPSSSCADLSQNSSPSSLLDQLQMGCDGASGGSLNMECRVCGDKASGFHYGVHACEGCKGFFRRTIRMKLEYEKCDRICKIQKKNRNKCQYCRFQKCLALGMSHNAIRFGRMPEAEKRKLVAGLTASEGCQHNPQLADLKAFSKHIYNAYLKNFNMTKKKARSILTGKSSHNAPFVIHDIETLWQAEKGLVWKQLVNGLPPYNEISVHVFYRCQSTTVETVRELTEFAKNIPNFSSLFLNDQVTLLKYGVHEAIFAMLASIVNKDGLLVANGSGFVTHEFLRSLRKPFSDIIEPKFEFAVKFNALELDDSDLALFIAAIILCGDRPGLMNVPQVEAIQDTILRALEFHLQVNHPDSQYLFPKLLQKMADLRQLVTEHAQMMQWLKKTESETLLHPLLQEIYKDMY
Put plainly: Agonist activity at Gal4-fused mouse PPAR-delta ligand binding domain expressed in CHO-K1 cells assessed as receptor transactivation incubated for 24 to 48 hrs by luciferase reporter gene assay relative to control. As to conditions: time lower 24.0 hrs, time upper […].

In assay [2] the target is T2, Peroxisome proliferator-activated receptor delta (Homo sapiens) (UniProt Q03181).
T2 sequence (whole entry): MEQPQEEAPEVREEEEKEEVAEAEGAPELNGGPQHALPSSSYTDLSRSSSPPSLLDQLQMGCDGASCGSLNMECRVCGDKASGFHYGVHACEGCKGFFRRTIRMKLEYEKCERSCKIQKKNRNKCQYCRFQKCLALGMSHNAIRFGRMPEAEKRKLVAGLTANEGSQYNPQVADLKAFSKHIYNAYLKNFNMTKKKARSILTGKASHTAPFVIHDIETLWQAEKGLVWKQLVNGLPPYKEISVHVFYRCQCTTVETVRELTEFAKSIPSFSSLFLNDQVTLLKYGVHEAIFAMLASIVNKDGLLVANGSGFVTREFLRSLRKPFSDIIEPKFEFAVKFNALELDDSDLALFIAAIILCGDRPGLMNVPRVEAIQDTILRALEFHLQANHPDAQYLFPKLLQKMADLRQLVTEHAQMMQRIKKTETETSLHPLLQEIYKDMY
The assay can be described thus: Agonist activity at Gal4-fused human PPAR-delta ligand binding domain expressed in CHO-K1 cells assessed as receptor transactivation incubated for 24 to 48 hrs by luciferase reporter gene assay relative to control. As to conditions: time lower 24.0 hrs, time upper […].

Assay [3] concerns the target T3, Peroxisome proliferator-activated receptor alpha (Homo sapiens, UniProt Q07869).
T3 sequence (Q07869 whole entry): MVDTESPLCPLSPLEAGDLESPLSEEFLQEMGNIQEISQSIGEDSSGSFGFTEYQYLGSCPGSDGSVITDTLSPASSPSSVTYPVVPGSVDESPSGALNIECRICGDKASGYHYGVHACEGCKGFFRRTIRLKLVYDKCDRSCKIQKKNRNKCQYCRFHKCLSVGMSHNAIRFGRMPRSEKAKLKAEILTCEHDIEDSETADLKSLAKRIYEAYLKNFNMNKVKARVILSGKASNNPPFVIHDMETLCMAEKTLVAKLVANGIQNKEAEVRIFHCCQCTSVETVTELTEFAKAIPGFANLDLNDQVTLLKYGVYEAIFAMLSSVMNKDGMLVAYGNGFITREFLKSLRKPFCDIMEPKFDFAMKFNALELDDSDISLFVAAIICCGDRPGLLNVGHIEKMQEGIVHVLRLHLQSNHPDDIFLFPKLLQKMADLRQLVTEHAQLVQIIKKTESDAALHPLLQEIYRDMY
The assay can be described thus: Agonist activity at Gal4-fused human PPAR-alpha ligand binding domain expressed in CHO-K1 cells assessed as receptor transactivation incubated for 24 to 48 hrs by luciferase reporter gene assay.

Assay [4] has as its target T4, Peroxisome proliferator-activated receptor delta (Mus musculus, UniProt P35396).
T4 sequence (P35396 whole entry): T1 sequence (whole entry)
Put plainly: Agonist activity at Gal4-fused mouse PPAR-delta ligand binding domain expressed in CHO-K1 cells assessed as receptor transactivation incubated for 24 to 48 hrs by luciferase reporter gene assay.

Take `Cc1cc(CC(=O)O)cc(CN2CCN(c3nc4ccc(C(F)(F)F)cc4s3)[C@H](C)C2)c1`: the Ratio EC50 in the assay filed under Mus musculus came to 74. Moreover, the Emax was found to be 20.8% in assay [1] and 13.5% in assay [2]. For the same molecule, the EC50 in assay [3] turned out to be 1.6 µM; in assay [4], 0.024 µM.

Regarding `Cc1cc(CC(=O)O)cc(CN2CCN(c3nc4ccc(C(F)(F)F)cc4s3)[C@@H](C)C2)c1`, the Ratio EC50 in the assay listed under Mus musculus came out at 69. Moreover, the Emax amounted to 20.4% in assay [1] and 14% in assay [2]. Besides, the EC50 in assay [3] was 1.8 µM; in assay [4], 0.039 µM.
